The term IC50 denotes the midpoint of a concentration-inhibition curve.

Common to all, as to assay type: biochemical
The target in one assay is T1, full-length human PHD3 (Homo sapiens, UniProt Q9H6Z9).
T1 construct: It was expressed in E. coli as the full-length protein; 6-His (N); purchased Active Motif 81033; host or cells: E. coli
The experiment in a line: TR-FRET assay, PHD3 enzymatic IC50. The conditions noted are these: 35 nM PHD3, 1 μM 2-OG. From the text: (§1) In the presence of 2-oxoglutarate and O2, PHD enzyme hydroxylates proline 564 of biotin-tagged HIF-1α peptide resulting in generation of biotin-tagged HIF-1α-hydroxyproline, succinate and CO2. The resulting proximity of the donor fluorophore complex, monoclonal antibody anti-6His-Terbium (Tb)-cryptate Gold, bound to the His-tagged VHL protein, EloB, EloC complex (His-VBC) and the acceptor fluorophore, SA-D2 complex, bound to HIF-1α-hydroxyproline results in a fluorescence resonance energy transfer signal that can be detected and quantified
(§2) Time-resolved fluorescence resonance energy transfer (TR-FRET) assay was utilized to determine the enzymatic half maximal inhibitory concentration (IC50) value of PHD inhibitors against the full-length human prolyl-4-hydroxylase domain (PHD) enzymes, PHD1, PHD2, and PHD3. The TR-FRET assay was developed based on the specific binding of hydroxylated HIF-1α peptide with the complex formed by VHL, EloB and EloC (VBC), to generate a fluorescent signal. Terbium (Tb)-Donor (monoclonal antibody anti-6His-Tb-cryptate Gold) and D2-acceptor (streptavidin [SA]-D2) of TR-FRET are linked to the VBC complex and to HIF-1α peptide, respectively. The VBC complex binds specifically to the HIF-1α peptide when it is hydroxylated, allowing energy transfer from TR-FRET donor to acceptor (FIG. 1).
Recombinant human PHD3 protein (molecular weight 31.1 kDa) was purchased from Active Motif (Carlsbad, Calif., USA). It was expressed in E. coli as the full-length protein (NCBI accession number NP_071356.1) with an N-terminal 6-His tag (catalog #81033, Lot #24417001).
(§3) PHD inhibitor compound was preincubated with PHD enzyme in a 10 μL reaction volume in white 384-well Optiplate microplates (catalog #6007290, Perkin Elmer, Waltham, Mass., USA). For this, 5 μL PHD inhibitor compound was serially diluted with dilution buffer (50 mM HEPES [4-(2-hydroxyethyl)-1-piperazineethanesulfonic acid] pH 7.5, 50 mM sodium chloride [NaCl], 0.01% Tween-20, 0.01% purified bovine serum albumin [BSA]) and mixed with 5 μL PHD enzyme mix prepared as a 4× concentrate in the dilution buffer containing PHD enzyme (60 nM PHD1, 20 nM PHD2, 140 nM PHD3), 40 μM ferrous ammonium sulfate (FAS), 4 mM sodium (Na) ascorbate. The plates were incubated for 30 minutes at room temperature without rotation.
(§4) Five microliters of the VBC/anti-6His-Tb-cryptate Gold mix prepared as a 4×concentrate in dilution buffer containing 20 nM His-VBC, 1.32 nM monoclonal antibody anti-6His-Tb-cryptate Gold was then added. This step was followed immediately by the addition of 5 μL of the HIF-1α C35 substrate mix prepared as a 4×concentrate in the dilution buffer containing 120 nM biotin-labeled HIF-1α C35, 132 nM SA-D2, 4 μM 2-oxoglutarate (2-OG) to reach a final reaction volume of 20 μL.
(§5) The final assay reaction contained 50 mM HEPES, pH 7.5, 50 mM NaCl, 1 μM 2-OG, 10 μM FAS, 1 mM Na ascorbate, 0.01% Tween-20, 0.01% purified BSA, 30 nM biotin-labeled HIF-1α C35, 5 nM His-VBC, 0.33 nM monoclonal antibody anti-6His-Tb-cryptate Gold, 33 nM SA-D2 and PHD enzyme (15 nM PHD1, 5 nM PHD2, or 35 nM PHD3) with the diluted compound.
(§6) For the measurement of the IC50 of PHD inhibitor compound, reactions were incubated for 10 minutes at room temperature and then read on a Perkin Elmer EnVision (Waltham, Mass., USA) at an excitation wavelength of 340 nm and at emission wavelengths of 615 nm and 665 nm. The data represent the quotient of the signal intensity at 665 nm and 615 nm, automatically calculated by Envision Manager software (Perkin Elmer, Waltham, Mass., USA). The IC50 values (mean, standard deviation, standard error of the mean, geometric mean and 95% confidence interval) were determined using a four-parameter curve-fit using GraphPad Prism 7.0 (GraphPad, La Jolla, Calif., USA) and represent the compound concentration plotted against the calculated ratio of 665 nm and 615 nm. […]
For orientation: Time-resolved FRET reads energy transfer from a long-lived donor to a nearby acceptor.

Another assay deals with T2, full-length human PHD1 (Homo sapiens, UniProt Q96KS0).
T2 construct: expressed in a baculovirus expression system as the full-length protein; FLAG (N); purchased Active Motif 81064; host or cells: baculovirus expression system
T2 sequence (Q96KS0 whole entry): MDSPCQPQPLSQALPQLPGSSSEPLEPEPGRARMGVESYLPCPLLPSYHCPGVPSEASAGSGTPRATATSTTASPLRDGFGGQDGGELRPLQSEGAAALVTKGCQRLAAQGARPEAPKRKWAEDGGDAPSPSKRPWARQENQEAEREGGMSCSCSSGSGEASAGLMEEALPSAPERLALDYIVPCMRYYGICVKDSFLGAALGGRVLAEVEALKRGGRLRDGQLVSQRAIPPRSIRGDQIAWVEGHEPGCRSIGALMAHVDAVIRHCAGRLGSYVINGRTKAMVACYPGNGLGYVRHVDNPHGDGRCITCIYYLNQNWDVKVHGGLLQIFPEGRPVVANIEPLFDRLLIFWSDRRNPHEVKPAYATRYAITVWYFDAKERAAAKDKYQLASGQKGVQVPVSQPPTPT
The assay is described as follows: TR-FRET assay, PHD1 enzymatic IC50. The conditions noted are these: 15 nM PHD1, 1 μM 2-OG.
Text: as §1, §2
Recombinant human PHD1 protein (catalog #81064, Lot #24717001) was purchased from Active Motif (Carlsbad, Calif., USA). PHD1 was expressed in a baculovirus expression system as the full-length protein (NCBI accession number NP_542770.2) with an N-terminal FLAG tag (molecular weight 44.9 kDa). Purity (>90%) was assessed by SDS-PAGE.
as §3, §4, §5, §6

In another assay the target is T3, full-length human PHD2 (Homo sapiens, UniProt Q9GZT9).
T3 construct: The PHD2 construct contained amino acids 1 to 426 of PHD2; His tag (N, cleaved yes); TEV protease cleavage site (N, cleaved yes); host or cells: Sf9 insect cells (baculovirus)
T3 sequence (Q9GZT9 whole entry, the tested form may be a part): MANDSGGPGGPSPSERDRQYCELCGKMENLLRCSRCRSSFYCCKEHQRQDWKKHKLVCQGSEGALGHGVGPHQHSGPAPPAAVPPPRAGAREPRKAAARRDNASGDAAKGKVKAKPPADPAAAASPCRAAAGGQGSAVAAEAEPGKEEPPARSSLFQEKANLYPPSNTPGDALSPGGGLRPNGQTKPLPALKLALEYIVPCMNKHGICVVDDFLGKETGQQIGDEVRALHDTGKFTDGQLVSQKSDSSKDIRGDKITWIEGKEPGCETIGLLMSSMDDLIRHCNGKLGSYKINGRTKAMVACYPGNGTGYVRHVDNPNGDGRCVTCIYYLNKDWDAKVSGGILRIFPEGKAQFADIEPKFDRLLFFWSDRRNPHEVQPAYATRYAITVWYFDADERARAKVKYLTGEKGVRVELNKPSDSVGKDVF
The assay is described as follows: TR-FRET assay, PHD2 enzymatic IC50. The conditions noted are these: 5 nM PHD2, 1 μM 2-OG.
Text: as §1, §2
The full-length human PHD2 enzyme was produced with a baculovirus infected insect cell (BIIC) expression system by Beryllium (Bedford, Mass., USA). The PHD2 construct contained amino acids 1 to 426 of PHD2 (UniProt Knowledgebase[UniProtKB]/Swiss-Prot accession number Q9GZT9.1), and a His tag and a Tobacco Etch Virus (TEV) protease cleavage site at the N-terminus. The construct was expressed in Sf9 insect cells, purified by Ni-NTA column and digested with TEV protease to remove the His tag.
as §3, §4, §5
For the measurement of the IC50 of PHD inhibitor compound, reactions were incubated for 10 minutes at room temperature and then read on a Perkin Elmer EnVision (Waltham, Mass., USA) at an excitation wavelength of 340 nm and at emission wavelengths of 615 nm and 665 nm. The data represent the quotient of the signal intensity at 665 nm and 615 nm, automatically calculated by Envision Manager software (Perkin Elmer, Waltham, Mass., USA). […]

T1 sequence (Q9H6Z9 whole entry): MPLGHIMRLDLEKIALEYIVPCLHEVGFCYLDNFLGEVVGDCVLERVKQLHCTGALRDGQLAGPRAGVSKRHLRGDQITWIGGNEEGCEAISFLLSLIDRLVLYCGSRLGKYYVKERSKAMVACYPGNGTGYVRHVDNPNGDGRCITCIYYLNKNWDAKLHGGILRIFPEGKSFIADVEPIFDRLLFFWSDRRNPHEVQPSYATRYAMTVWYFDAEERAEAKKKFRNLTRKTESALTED

Take `COc1cc(-c2cnn(-c3ccc(S(C)(=O)=O)cn3)c2O)ccn1` [Compound 8, 4-(2-methoxypyridin-4-yl)-1-(5-(methylsulfonyl)pyridin-2-yl)-1H-pyrazol-5-ol]: the figures for the IC50 on full-length human PHD3, against full-length human PHD1 and against full-length human PHD2 were 100 to 1000 nM, less than 100 nM and less than 100 nM, respectively.

In the case of `CS(=O)(=O)c1ccc(-n2ncc(-c3ccc(Br)cc3)c2O)nc1` [Compound 9, 4-(4-bromophenyl)-1-(5-(methylsulfonyl)pyridin-2-yl)-1H-pyrazol-5-ol], the concentration for half-maximal inhibition (IC50) against full-length human PHD3 was 100 to 1000 nM; against full-length human PHD1, less than 100 nM; on full-length human PHD2 it was less than 100 nM.

In the case of `N#Cc1ccc(-c2cnn(-c3ccc(-n4cccn4)cn3)c2O)cc1` [Compound 10, 4-(1-(5-(1H-pyrazol-1-yl)pyridin-2-yl)-5-hydroxy-1H-pyrazol-4-yl)benzonitrile], the IC50 at full-length human PHD3 is 100 to 1000 nM; against full-length human PHD1, less than 100 nM; on full-length human PHD2, less than 100 nM.

On to `N#Cc1ccc(-c2cnn(-c3ccc(-c4ncco4)cn3)c2O)cc1` [Compound 11, 4-(5-hydroxy-1-(5-(oxazol-2-yl)pyridin-2-yl)-1H-pyrazol-4-yl)benzonitrile], for which the half-maximal inhibitory concentration (IC50) on full-length human PHD3 is 100 to 1000 nM; against full-length human PHD1, less than 100 nM; against full-length human PHD2, less than 100 nM.

Turning to `N#Cc1ccc(-c2cnn(-c3ccc(-c4nccs4)cn3)c2O)cc1` [Compound 12, 4-(5-hydroxy-1-(5-(thiazol-2-yl)pyridin-2-yl)-1H-pyrazol-4-yl)benzonitrile], the IC50 against full-length human PHD3, at full-length human PHD1 and against full-length human PHD2 was less than 100 nM throughout.

Consider `N#Cc1ccc(-c2cnn(-c3ccc(N4CCCC4=O)cn3)c2O)cc1` [Compound 15, 4-(5-hydroxy-1-(5-(2-oxopyrrolidin-1-yl)pyridin-2-yl)-1H-pyrazol-4-yl)benzonitrile], for which the IC50 on full-length human PHD3, at full-length human PHD1 and against full-length human PHD2 was less than 100 nM in each case.

`N#Cc1ccc(-c2cnn(-c3ccc(F)cn3)c2O)cc1` [Compound 17, 4-(1-(5-fluoropyridin-2-yl)-5-hydroxy-1H-pyrazol-4-yl)benzonitrile]: the values for the concentration for half-maximal inhibition (IC50) against full-length human PHD3, against full-length human PHD1 and on full-length human PHD2 were 100 to 1000 nM, less than 100 nM and less than 100 nM, respectively.

In the case of `CS(=O)(=O)c1ccc(-n2ncc(-c3ccc(Cl)cc3)c2O)nc1` [Compound 19, 4-(4-chlorophenyl)-1-(5-(methylsulfonyl)pyridin-2-yl)-1H-pyrazol-5-ol], the IC50 was 100 to 1000 nM against full-length human PHD3, less than 100 nM on full-length human PHD1 and less than 100 nM against full-length human PHD2.

With `CS(=O)(=O)c1ccc(-n2ncc(-c3ccc(F)cc3)c2O)nc1` [Compound 20, 4-(4-fluorophenyl)-1-(5-(methylsulfonyl)pyridin-2-yl)-1H-pyrazol-5-ol], the values for the 50% inhibitory concentration (IC50) against full-length human PHD3, against full-length human PHD1 and at full-length human PHD2 were no less than 10000 nM, less than 100 nM and less than 100 nM, respectively.

`N#Cc1ccc(-c2cnn(-c3ccc(NC(=O)C4CC4)cn3)c2O)cc1` [Compound 22, N-(6-(4-(4-cyanophenyl)-5-hydroxy-1H-pyrazol-1-yl)pyridin-3-yl)-cyclopropanecarboxamide]: the IC50 on full-length human PHD3 is 100 to 1000 nM; against full-length human PHD1, less than 100 nM; at full-length human PHD2 it was less than 100 nM.

In the case of `CCC(=O)Nc1ccc(-n2ncc(-c3ccc(C#N)cc3)c2O)nc1` [Compound 23, N-(6-(4-(4-cyanophenyl)-5-hydroxy-1H-pyrazol-1-yl)pyridin-3-yl)propionamide], the IC50 against full-length human PHD3, against full-length human PHD1 and at full-length human PHD2 was less than 100 nM throughout.

In the case of `CS(=O)(=O)Nc1ccc(-n2ncc(-c3ccc(C#N)cc3)c2O)nc1` [Compound 24, N-(6-(4-(4-cyanophenyl)-5-hydroxy-1H-pyrazol-1-yl)pyridin-3-yl)methanesulfonamide], the IC50 against full-length human PHD3, against full-length human PHD1 and at full-length human PHD2 was less than 100 nM each time.

Turning to `CCS(=O)(=O)Nc1ccc(-n2ncc(-c3ccc(C#N)cc3)c2O)nc1` [Compound 25, N-(6-(4-(4-cyanophenyl)-5-hydroxy-1H-pyrazol-1-yl)pyridin-3-yl)ethanesulfonamide], the concentration for half-maximal inhibition (IC50) at full-length human PHD3, on full-length human PHD1 and against full-length human PHD2 was less than 100 nM each time.

These data come from US20230212138A1, “PHD INHIBITOR COMPOUNDS, COMPOSITIONS, AND THEIR USE” (Akebia Therapeutics, Inc., priority 2020, published 2023).
